How the values were obtained:
Arabidopsis thaliana [1] = assay: Phenotypic profiling of Arabidopsis sprayed with unknown and commercial herbicides (MOA1); assay type: in vivo; conditions: Ward's method
Arabidopsis thaliana [2] = assay: Biochemical (metabolite) profiling by LC-MS and GC-MS of sprayed Arabidopsis (MOA1); conditions: within one hour after spraying

## CC(C)OC(=O)Nc1cccc(Cl)c1 [Chloropropham]
Arabidopsis thaliana [1]
  phenotype / hierarchical clustering of the eleven phenotypic characteristics: neither showed a strong herbicidal phenotype
Arabidopsis thaliana [2]
  stress related (commonly regulated) metabolites: neither butylate nor chlorpropham treatment resulted in many changes
